Converted amounts (≈) assume the structure as drawn. The source made the active and inactive calls. No cut-off for these calls is given here. Non-standard residues stand in square brackets, D forms with d. Residues, ends and D or L forms follow the SMILES beside them. *: point of attachment. PEG24 = NCCOCCOCCOCCOCCOCCOCCOCCOCCOCCOCCOCCOCCOCCOCCOCCOCCOCCOCCOCCOCCOCCOCCOCCOCCC(=O)O; Palmitoyl = CCCCCCCCCCCCCCCC(=O)*; AEEA = NCCOCCOCC(=O)O; Aib = CC(C)(N)C(=O)O

What is called MRT last is a mean duration of stay, worked out from the concentration-time curve. One may read the Vd as the apparent volume that relates the amount in the body to the concentration in plasma or blood. Read a high Vd as wide distribution into tissue. As a reminder, the AUC(0-t) is exposure summed from dosing to a finite time, without extrapolation to infinity. Read a low AUC(0-t) as less exposure. As a reminder, the EC50 is the concentration at which the effect is half-maximal. One may read the Cmax as the maximum level reached in the sampled fluid or tissue. By half-life is commonly meant the time in which the quantity being followed falls by half. A low value points to rapid decline. The clearance is the volume of plasma or blood freed of the substance per unit of time. The solubility is how much of the substance goes into solution per volume. Read a low solubility as a poorly soluble substance. What is called CC50 is the concentration at which the toxic effect on the cells reaches its halfway point.

The nature of data set [1]: MRT (0 to t) in Sprague-Dawley rat at 4 mg/kg, iv administered as single dose and measured upto 36 hrs by LC-MS/MS analysis. To be noted: in vivo. In kind it is ADME, organism-based.
A short description of data set [2]: Volume of distribution in Sprague-Dawley rat at 4 mg/kg, iv administered as single dose and measured upto 36 hrs by LC-MS/MS analysis. Format: ADME, organism-based. As to conditions: in vivo.
Data set [3] is described as follows: AUC (0 to t) in Sprague-Dawley rat at 4 mg/kg, iv administered as single dose and measured upto 36 hrs by LC-MS/MS analysis. In kind it is ADME, organism-based. To be noted: in vivo.
Data set [4] in a line: Inhibition of MERS-CoV Spike glycoprotein mediated cell-cell fusion. Set-up: species or system Middle East respiratory syndrome-related coronavirus.
The nature of data set [5]: Cmax in Sprague-Dawley rat at 4 mg/kg, iv administered as single dose and measured upto 36 hrs by LC-MS/MS analysis. Format: ADME, organism-based. To be noted: in vivo.
The nature of data set [6]: Half life in Sprague-Dawley rat at 4 mg/kg, iv administered as single dose and measured upto 36 hrs by LC-MS/MS analysis. Format: ADME, organism-based. As to conditions: in vivo.
Data set [7] in a line: Clearance in Sprague-Dawley rat at 4 mg/kg, iv administered as single dose and measured upto 36 hrs by LC-MS/MS analysis. Format: ADME, organism-based. To be noted: in vivo.
The subject of data set [8] is Middle East respiratory syndrome-related coronavirus. In words: Antiviral activity against MERS CoV pseudovirus infected in Huh-7 cells assessed as inhibition of viral infection. Format: functional, organism-based.
The nature of data set [9]: Water solubility of compound in dd-H2O. Format: physicochemical.
Data set [10] has as its system Middle East respiratory syndrome-related coronavirus. Kind of data set: Inhibition of MERS CoV spike glycoprotein HR1/HR2 fusion assessed as disruption of fusion-active core formation by measuring increase in HR2P density at 100 uM by native-PAGE analysis.
The nature of data set [11]: Cytotoxicity against human Huh-7 cells infected with MERS CoV pseudovirus assessed as reduction in cell viability. In kind it is toxicity, cell-based.
The test system of data set [12] is Middle East respiratory syndrome-related coronavirus. Kind of data set: Inhibition of MERS CoV spike glycoprotein HR1/HR2 fusion assessed as disruption of fusion-active core formation by measuring reduction in six-helix bundle density at 100 uM by native-PAGE analysis.
Data set [13] can be described thus: Selectivity index, ratio of CC50 for human Huh-7 cells infected with MERS CoV pseudovirus to EC50 for MERS CoV pseudovirus infected in Huh-7 cells. Format: toxicity, cell-based. As to conditions: read-out: Ratio CC50/EC50.
The nature of data set [14]: Water solubility of compound in PBS at pH 7.4. Format: physicochemical.

As to `CC[C@H](C)[C@H](NC(=O)[C@H](Cc1ccc(O)cc1)NC(=O)[C@H](CO)NC(=O)[C@H](CCC(=O)O)NC(=O)[C@H](CCC(=O)O)NC(=O)[C@H](CC(C)C)NC(=O)[C@H](CCCCN)NC(=O)[C@H](CCCCN)NC(=O)[C@@H](NC(=O)[C@@H](NC(=O)[C@H](CCC(=O)O)NC(=O)[C@H](CCC(=O)O)NC(=O)[C@H](CC(C)C)NC(=O)[C@H](CCCCN)NC(=O)[C@H](CCCCN)NC(=O)[C@H](CCSC)NC(=O)[C@H](CCC(=O)O)NC(=O)[C@H](Cc1ccc(O)cc1)NC(=O)[C@H](CCC(=O)O)NC(=O)[C@H](CC(C)C)NC(=O)[C@H](CC(=O)O)NC(=O)[C@H](CC(C)C)NC(=O)[C@H](CC(C)C)NC(=O)[C@@H](NC(=O)[C@@H](NC(=O)[C@H](CC(N)=O)NC(=O)[C@@H](NC(=O)[C@H](CCC(N)=O)NC(=O)[C@@H](NC(=O)[C@H](CC(C)C)NC(=O)[C@@H](N)CO)[C@@H](C)O)[C@@H](C)CC)[C@@H](C)O)[C@@H](C)O)C(C)C)C(C)C)C(=O)N[C@@H](CC(=O)O)C(=O)N[C@@H](CC(C)C)C(=O)N[C@@H](CCCCN)C(=O)N[C@@H](CCC(=O)O)C(=O)N[C@@H](CC(C)C)C(=O)O`, the mean residence time (MRT last) at 36 h in [1] is 0.28 h. For the same molecule, the Vd in data set [2] was found to be 0.307 L/kg. Moreover, the AUC(0-t) at 36 h in data set [3] turned out to be 6450 ng·h/mL. For the same molecule, in data set [4], it took 0.75 µM to reach a half-maximal effect (EC50). Further, the highest level in data set [5] (Cmax) was 30400 ng/mL. The same molecule had a half-life in data set [6] of 0.35 h. In [7], this molecule had a clearance of 10.2 mL/min/kg.
Molecule `CCCCCCCCCCCCCCCC(=O)NCCCC[C@H](NC(=O)COCCOCCNC(=O)[C@H](Cc1ccc(O)cc1)NC(=O)[C@H](CO)NC(=O)[C@H](CCC(=O)O)NC(=O)[C@H](CC(N)=O)NC(=O)[C@H](CC(C)C)NC(=O)[C@H](CCCCN)NC(=O)[C@H](CCCCN)NC(=O)[C@@H](NC(=O)[C@@H](NC(=O)[C@H](CCC(=O)O)NC(=O)[C@H](CCC(N)=O)NC(=O)[C@H](CC(C)C)NC(=O)[C@H](CO)NC(=O)[C@H](CC(C)C)NC(=O)[C@H](CCSC)NC(=O)C(C)(C)NC(=O)[C@H](Cc1ccc(O)cc1)NC(=O)[C@@H](NC(=O)[C@H](CC(C)C)NC(=O)C(C)(C)NC(=O)[C@H](CC(C)C)NC(C)=O)[C@@H](C)O)C(C)C)C(C)C)C(N)=O` (Ac-L[Aib]LTY[Aib]MLSLQEVVKKLNESY[AEEA]K(Palmitoyl)-NH2) gave an MRT last at 36 h in data set [1] of 9.1 h. Moreover, the results for the EC50 in data set [8] and in data set [4] were 5.22 µM and 0.245 µM, respectively. Further, the results for the solubility in [9] and in data set [14] were 1.17 µM (≈ 3.5 µg/mL) and 5.46 µM (≈ 16.4 µg/mL), respectively. Further, the inhibition result in data set [10] and in [12] was “Active” each time. This molecule also had a Vd in [2] of 0.683 L/kg. For the same molecule, the CC50 in [11] was greater than 200 µM. The same molecule displayed an AUC(0-t) at 36 h in data set [3] of 59800 ng·h/mL. For the same molecule, the selectivity ratio in data set [13] is greater than 38.3. Also, the Cmax in data set [5] was found to be 5000 ng/mL. For the same molecule, in data set [6], the half-life was 7.27 h. In data set [7], the clearance is 1.08 mL/min/kg.
In turn, `CSCC[C@H](NC(=O)[C@H](CCC(=O)O)NC(=O)C(C)(C)NC(=O)[C@@H](NC(=O)[C@H](CC(C)C)NC(=O)[C@H](CC(=O)O)NC(=O)[C@H](CC(C)C)NC(C)=O)[C@@H](C)O)C(=O)N[C@@H](CC(C)C)C(=O)NC(C)(C)C(=O)N[C@@H](CC(C)C)C(=O)N[C@@H](CCC(N)=O)C(=O)N[C@@H](CCC(N)=O)C(=O)N[C@H](C(=O)N[C@H](C(=O)N[C@@H](CCCCN)C(=O)N[C@@H](C)C(=O)N[C@@H](CC(C)C)C(=O)N[C@@H](CC(N)=O)C(=O)N[C@@H](CCC(=O)O)C(=O)N[C@@H](CO)C(=O)N[C@@H](Cc1ccc(O)cc1)C(N)=O)C(C)C)C(C)C` showed an EC50 in [4] greater than 50 µM.
Turning to `CCCCCCCCCCCCCCCC(=O)NCCCC[C@H](NC(=O)CCOCCOCCOCCOCCOCCOCCOCCOCCOCCOCCOCCOCCOCCOCCOCCOCCOCCOCCOCCOCCOCCOCCOCCOCCNC(=O)[C@H](Cc1ccc(O)cc1)NC(=O)[C@H](CO)NC(=O)[C@H](CCC(=O)O)NC(=O)[C@H](CC(N)=O)NC(=O)[C@H](CC(C)C)NC(=O)[C@H](CCCCN)NC(=O)[C@H](CCCCN)NC(=O)[C@@H](NC(=O)[C@@H](NC(=O)[C@H](CCC(=O)O)NC(=O)[C@H](CCC(N)=O)NC(=O)[C@H](CC(C)C)NC(=O)[C@H](CO)NC(=O)[C@H](CC(C)C)NC(=O)[C@H](CCSC)NC(=O)C(C)(C)NC(=O)[C@H](Cc1ccc(O)cc1)NC(=O)[C@@H](NC(=O)[C@H](CC(C)C)NC(=O)C(C)(C)NC(=O)[C@H](CC(C)C)NC(C)=O)[C@@H](C)O)C(C)C)C(C)C)C(N)=O` (Ac-L[Aib]LTY[Aib]MLSLQEVVKKLNESY[PEG24]K(Palmitoyl)-NH2), the EC50 in [4] was greater than 50 µM.
